Experimental data as given in patent publication US20100267697A1, “ION CHANNEL MODULATORS” (Wyeth, priority 2006, published 2010).
Where two headings read alike, the source gives them in different places.

Biological target: T1, Cav2.2 (Homo sapiens, UniProt Q00975)
T1 construct: expressed in transfected cells; host or cells: HEK-293T/17 (transient, FuGENE 6)
Assay: HEK assay (whole-cell patch clamp, transiently transfected HEK-293T/17 cells, pulses P1 and P5)
Assay type: cell-based
Settings: holding potential −100 mV
Experimental: HEK-293T/17 cells were transiently transfected in a similar manner as described in FuGENE 6 Package Insert Version 7, April 2002, Roche Applied Science, Indianapolis, Ind. The cells were plated at 2.5×10^5 cells in 2 mL in a 6-well plate, incubated for one night, and achieved a ˜30-40% confluence. In a small sterile tube, sufficient serum-free medium was added as diluent for FuGENE Transfection Reagent (Roche Applied Science, Indianapolis, Ind.) to a total volume of 100 μL. To this medium was added 3 μL of FuGENE 6 Reagent. The mixture was tapped gently to mix. To the prediluted FuGENE 6 Reagent was added 2 μg of DNA solution (0.8-2.0 μg/μL). The DNA/Fugene 6 mixture was gently pipeted to mix the contents and incubated for about 15 minutes at room temperature. The complex mixture was then added to the HEK-293T/17 cells, distributed around the well, and swirled to ensure even dispersal. The cells were returned to the incubator for 24 hours. The transfected cells were then replated at density 2.5×10^5 in a 35 mm dish with 5 glass coverslips and grew in low serum (1%) media for 24 hours. Coverslips with isolated cells were then transferred into a chamber, and calcium channel (e.g., L-type, N-type, etc.) current or other currents for counter screening were recorded from the transiently transfected HEK-293T/17 cells.
The whole-cell voltage clamp configuration of the patch clamp technique was employed to evaluate voltage-dependent calcium currents essentially as described by Thompson and Wong (1991), J. Physiol., 439: 671-689, the entire disclosure of which is herein incorporated by reference. To record calcium channel (e.g., L-type, N-type, etc.) currents for evaluation of inhibitory potency of compounds (steady-state concentration-response analysis), five pulses of 20-30 ms voltage steps to about +10 mV (the peak of the current voltage relationship) were delivered at five Hz every 30 second from a holding potential at −100 mV. In order to obtain an estimate of the degree of use-dependent block of the test compounds, IC50 values were determined at the first and fifth pulse of the train (P1 and P5, respectively, in Table 2). Compound evaluations were carried out essentially as described by Sah D. W. and Bean B. P. (1994), Mol. Pharmacol., 45:84-92, the entire disclosure of which is herein incorporated by reference.

[1] = fifth pulse (P5) of 5 Hz train, read-out: HEK Cav2.2 P5 IC50
[2] = first pulse (P1) of 5 Hz train, read-out: HEK Cav2.2 P1 IC50

T1 sequence (Q00975 whole entry): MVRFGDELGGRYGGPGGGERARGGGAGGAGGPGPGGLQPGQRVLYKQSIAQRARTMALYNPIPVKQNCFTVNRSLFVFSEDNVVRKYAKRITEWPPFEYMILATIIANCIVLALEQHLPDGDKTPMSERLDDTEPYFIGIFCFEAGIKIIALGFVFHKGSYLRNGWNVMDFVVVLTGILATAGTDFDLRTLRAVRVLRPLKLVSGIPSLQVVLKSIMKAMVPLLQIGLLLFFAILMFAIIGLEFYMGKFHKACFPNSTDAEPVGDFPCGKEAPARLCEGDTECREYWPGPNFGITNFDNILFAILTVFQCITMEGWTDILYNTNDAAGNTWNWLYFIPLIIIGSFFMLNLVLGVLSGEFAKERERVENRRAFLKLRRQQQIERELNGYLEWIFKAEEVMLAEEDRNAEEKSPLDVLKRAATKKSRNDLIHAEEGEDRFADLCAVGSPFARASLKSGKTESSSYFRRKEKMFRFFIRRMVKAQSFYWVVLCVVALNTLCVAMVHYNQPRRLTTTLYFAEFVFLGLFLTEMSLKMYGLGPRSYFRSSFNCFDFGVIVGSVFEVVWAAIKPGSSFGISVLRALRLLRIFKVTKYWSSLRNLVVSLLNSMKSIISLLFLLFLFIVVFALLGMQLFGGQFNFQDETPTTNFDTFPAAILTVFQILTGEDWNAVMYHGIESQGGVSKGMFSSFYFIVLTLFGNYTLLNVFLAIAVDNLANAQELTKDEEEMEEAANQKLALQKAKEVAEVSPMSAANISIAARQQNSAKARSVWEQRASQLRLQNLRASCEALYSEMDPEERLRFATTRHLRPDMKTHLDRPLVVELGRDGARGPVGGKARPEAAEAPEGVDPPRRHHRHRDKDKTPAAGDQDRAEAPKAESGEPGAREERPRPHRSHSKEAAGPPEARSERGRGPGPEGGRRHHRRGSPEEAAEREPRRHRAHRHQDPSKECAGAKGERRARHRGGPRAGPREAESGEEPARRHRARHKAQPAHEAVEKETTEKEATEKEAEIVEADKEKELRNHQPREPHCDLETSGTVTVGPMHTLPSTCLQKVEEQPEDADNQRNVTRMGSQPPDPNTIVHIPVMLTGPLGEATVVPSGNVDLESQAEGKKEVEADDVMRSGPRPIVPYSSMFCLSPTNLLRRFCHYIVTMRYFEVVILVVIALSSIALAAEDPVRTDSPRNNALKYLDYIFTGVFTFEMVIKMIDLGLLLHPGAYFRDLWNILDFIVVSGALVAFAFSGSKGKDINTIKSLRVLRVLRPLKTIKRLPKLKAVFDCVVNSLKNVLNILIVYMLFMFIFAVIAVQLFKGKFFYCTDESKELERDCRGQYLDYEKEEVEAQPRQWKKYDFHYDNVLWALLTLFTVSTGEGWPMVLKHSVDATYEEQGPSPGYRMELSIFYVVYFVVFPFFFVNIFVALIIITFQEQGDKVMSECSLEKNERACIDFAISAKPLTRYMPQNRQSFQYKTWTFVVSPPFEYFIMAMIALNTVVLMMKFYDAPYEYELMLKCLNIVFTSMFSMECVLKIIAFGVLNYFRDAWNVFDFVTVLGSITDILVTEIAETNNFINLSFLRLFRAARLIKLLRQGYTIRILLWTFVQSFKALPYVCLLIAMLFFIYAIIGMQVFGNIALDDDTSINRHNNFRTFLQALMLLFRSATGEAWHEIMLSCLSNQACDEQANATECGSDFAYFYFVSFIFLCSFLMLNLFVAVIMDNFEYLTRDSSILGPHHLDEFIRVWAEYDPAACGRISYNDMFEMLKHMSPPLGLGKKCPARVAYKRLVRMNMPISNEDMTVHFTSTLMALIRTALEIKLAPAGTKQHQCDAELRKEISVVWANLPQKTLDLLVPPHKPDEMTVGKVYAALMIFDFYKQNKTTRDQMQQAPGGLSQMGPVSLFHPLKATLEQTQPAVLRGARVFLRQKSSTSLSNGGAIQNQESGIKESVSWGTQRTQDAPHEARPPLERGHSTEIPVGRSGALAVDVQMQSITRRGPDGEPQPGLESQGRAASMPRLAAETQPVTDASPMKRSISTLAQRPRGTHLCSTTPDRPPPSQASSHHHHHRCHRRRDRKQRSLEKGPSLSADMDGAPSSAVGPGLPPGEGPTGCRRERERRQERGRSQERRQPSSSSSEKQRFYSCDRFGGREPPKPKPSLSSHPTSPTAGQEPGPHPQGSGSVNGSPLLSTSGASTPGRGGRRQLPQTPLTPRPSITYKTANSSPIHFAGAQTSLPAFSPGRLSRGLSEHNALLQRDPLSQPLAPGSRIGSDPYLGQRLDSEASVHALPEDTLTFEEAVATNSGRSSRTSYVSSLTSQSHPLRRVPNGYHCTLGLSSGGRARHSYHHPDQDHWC
T1 sequence (P54284 whole entry partner): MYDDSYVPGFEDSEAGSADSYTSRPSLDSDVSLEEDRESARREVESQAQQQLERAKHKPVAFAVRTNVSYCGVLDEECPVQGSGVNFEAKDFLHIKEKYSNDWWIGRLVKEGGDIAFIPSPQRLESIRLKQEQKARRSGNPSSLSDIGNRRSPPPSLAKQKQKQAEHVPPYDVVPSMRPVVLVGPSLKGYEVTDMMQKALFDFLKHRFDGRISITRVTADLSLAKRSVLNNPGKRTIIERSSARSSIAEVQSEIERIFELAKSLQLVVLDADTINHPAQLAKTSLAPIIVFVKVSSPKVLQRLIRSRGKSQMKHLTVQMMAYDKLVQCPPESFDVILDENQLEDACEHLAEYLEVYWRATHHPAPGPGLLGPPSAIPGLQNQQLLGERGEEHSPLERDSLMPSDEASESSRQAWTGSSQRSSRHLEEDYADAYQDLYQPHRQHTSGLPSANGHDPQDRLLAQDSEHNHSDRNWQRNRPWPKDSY
T1 sequence (P54289 25-946 partner limits assumed): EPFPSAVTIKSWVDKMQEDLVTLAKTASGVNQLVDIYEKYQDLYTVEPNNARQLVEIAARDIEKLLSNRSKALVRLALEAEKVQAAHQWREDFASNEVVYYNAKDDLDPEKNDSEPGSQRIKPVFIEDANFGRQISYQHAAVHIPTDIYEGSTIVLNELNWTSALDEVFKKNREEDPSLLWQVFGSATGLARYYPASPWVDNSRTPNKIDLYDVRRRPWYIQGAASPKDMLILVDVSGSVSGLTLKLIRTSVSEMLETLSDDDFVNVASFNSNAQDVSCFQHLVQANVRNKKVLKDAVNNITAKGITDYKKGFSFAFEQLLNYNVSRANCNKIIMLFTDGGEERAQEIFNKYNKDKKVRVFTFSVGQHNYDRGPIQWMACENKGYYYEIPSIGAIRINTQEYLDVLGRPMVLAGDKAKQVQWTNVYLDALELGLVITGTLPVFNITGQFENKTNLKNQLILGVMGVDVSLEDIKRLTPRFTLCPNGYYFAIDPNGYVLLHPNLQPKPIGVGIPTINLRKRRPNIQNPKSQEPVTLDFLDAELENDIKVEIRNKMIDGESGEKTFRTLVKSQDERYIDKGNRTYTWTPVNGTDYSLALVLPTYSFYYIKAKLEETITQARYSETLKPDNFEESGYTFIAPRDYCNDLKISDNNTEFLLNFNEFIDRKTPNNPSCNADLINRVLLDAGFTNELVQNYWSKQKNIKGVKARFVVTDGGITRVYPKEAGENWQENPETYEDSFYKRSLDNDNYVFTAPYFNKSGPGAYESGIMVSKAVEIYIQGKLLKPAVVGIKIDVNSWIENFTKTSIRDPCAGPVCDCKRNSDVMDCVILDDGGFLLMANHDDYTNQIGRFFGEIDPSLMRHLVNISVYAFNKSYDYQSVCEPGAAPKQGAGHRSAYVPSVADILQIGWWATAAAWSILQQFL
T1 sequence (P54289 947-1103 partner limits assumed): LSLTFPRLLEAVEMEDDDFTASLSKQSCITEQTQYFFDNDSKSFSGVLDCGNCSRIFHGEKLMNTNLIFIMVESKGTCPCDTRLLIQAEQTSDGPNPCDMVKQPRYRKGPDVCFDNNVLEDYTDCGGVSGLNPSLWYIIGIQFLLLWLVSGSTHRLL

Row | Structure (SMILES) | IC50 [1] [µM] | IC50 [2] [µM]
1 | CC(C)(C)C(=O)N(Cc1ccc(N2CC[C@H](O)C2)nc1)c1ccc(F)cc1 [Compound 51, N-(4-Fluorophenyl)-N-[6-(3-hydroxy-pyrrolidin-1-yl)-pyridin-3-ylmethyl]-2,2-dimethyl-propionamide] | 12.8 | 34
2 | CCN(CC)C1CCN(c2ccc(CN(C(=O)C(C)(C)C)c3ccc(F)cc3)cn2)C1 (centres unmarked) [Compound 52, N-[6-(3-Diethylamino-pyrrolidin-1-yl)-pyridin-3-ylmethyl]-N-(4-fluorophenyl)-2,2-dimethyl-propionamide] | 6.3 | 17.1
3 | CC(C)(C)C(=O)N(Cc1ccc(N2CCC(c3nc4ccccc4[nH]3)CC2)nc1)c1ccc(F)cc1 [Compound 53, N-[4-(1H-Benzoimidazol-2-yl)-3,4,5,6-tetrahydro-2H-[1,2′]bipyridinyl-5′-ylmethyl]-N-(4-fluorophenyl)-2,2-dimethyl-propionamide] | 0.3 | 0.6
4 | CCN(CC)c1ccc(CN(C(=O)C(C)(C)n2cc(CN(C)C)nn2)c2ccc(F)cc2)cn1 [Compound 54, N-(6-Diethylamino-pyridin-3-ylmethyl)-2-(4-dimethylaminomethyl-[1,2,3]triazol-1-yl)-N-(4-fluorophenyl)-isobutyramide] | 5.3 | 8.9
5 | CC(C)(C)C(=O)N(Cc1ccc(N2CC[C@@H](Oc3ccccn3)C2)nc1)c1ccc(F)cc1 [Compound 55, N-(4-Fluorophenyl)-2,2-dimethyl-N-{6-[3-(pyridin-2-yloxy)-pyrroldiin-1-yl]-pyridin-3-ylmethyl}-propionamide] | 0.6 | 1.7
6 | CNC1CCN(c2ccc(CN(C(=O)C(C)(C)C)c3ccc(F)cc3)cn2)C1 (centres unmarked) [Compound 56, N-(4-Fluorophenyl)-2,2-dimethyl-N-[6-(3-methylamino-pyrrolidin-1-yl)-pyridin-3-ylmethyl]-propionamide] | 2.8 | 6
7 | CCN(CC)c1ccc(CN(C(=O)C(C)(C)n2cc(Cc3ccccc3)nn2)c2ccc(F)cc2)cn1 [Compound 63, 2-(4-Benzyl-[1,2,3]triazol-1-yl)-N-(6-diethylamino-pyridin-3-ylmethyl)-N-(4-fluorophenyl)-isobutyramide] | 0.7 | 2.7

Now from value to compound:

Row | IC50 [1] [µM] | IC50 [2] [µM] | Structure (SMILES)
8 | 0.9 | 4.9 | CCN(CCc1cccnc1)c1ccc(CN(C(=O)C(C)(C)C)c2ccc(F)cc2)cn1 [Compound 58, N-{6-[Ethyl-(2-pyridin-3-yl-ethyl)-amino]-pyridin-3-ylmethyl}-N-(4-fluorophenyl)-2,2-dimethyl-propionamide]
9 | 3.8 | 29.1 | CC(C)(C)C(=O)N(Cc1ccc(NCCc2cccnc2)nc1)c1ccc(F)cc1 [Compound 59, N-(4-Fluorophenyl)-2,2-dimethyl-N-[6-(2-pyridin-3-yl-ethylamino)-pyridin-3-ylmethyl]-propionamide]
10 | 0.6 | 1.8 | CN(c1ccccc1)c1nc(CN(C(=O)C(C)(C)C)c2ccc(F)cc2)cs1 [Compound 65, N-(4-Fluorophenyl)-2,2-dimethyl-N-[2-(methyl-phenyl-amino)-thiazol-4-ylmethyl]-propionamide]
11 | 1.1 | 3.5 | CN(Cc1ccco1)c1ccc(CN(C(=O)C(C)(C)C)c2ccc(F)cc2)cn1 [Compound 66, N-(4-Fluorophenyl)-N-[6-(furan-2-ylmethyl-methyl-amino)-pyridin-3-ylmethyl]-2,2-dimethyl-propionamide]
12 | 3.7 | 9.3 | CC(C)(C)Nc1ccc(CN(C(=O)C(C)(C)C)c2ccc(F)cc2)cn1 [Compound 67, N-(6-tert-Butylamino-pyridin-3-ylmethyl)-N-(4-fluorophenyl)-2,2-dimethyl-propionamide]
13 | 1.2 | 3.2 | COc1ccc(OCc2nc(CN(C(=O)C(C)(C)C)c3ccc(F)cc3)cs2)cc1 [Compound 68, N-(4-Fluorophenyl)-N-[2-(4-methoxy-phenoxymethyl)-thiazol-4-ylmethyl]-2,2-dimethyl-propionamide]
